Columns and labels:
Format in all cases: binding
[1] = test system: anti-testosterone antibody Ab2 (mouse monoclonal IgG, clone 15H9H10); assay: VIDAS® competitive testosterone immunoassay, format Ab2 + Conjugate 1 of the invention; details: for B/B0% / Signal (RFV): conjugate 3 ng/ml
Experimental: (§1) Competition then takes place between the testosterone present in the sample and the testosterone derivative of the conjugate for the sites of the anti-testosterone antibody fixed on the cone. The washing steps are carried out with the buffer Tris-NaCl (0.05 mol/l) pH 7.4 or with diethanolamine (1.1 mol/1) pH 9.8 and make it possible to remove the compounds that are not fixed. During the final development step, the substrate 4-methylombelliferyl phosphate is aspirated and then introduced into the cone; the enzyme of the conjugate catalyzes the reaction of hydrolysis of this substrate in 4-methylombelliferone, and the fluorescence emitted from the latter is measured at 450 nm. The value of the fluorescence signal is inversely proportional to the concentration of the testosterone present in the sample. This concentration is calculated relative to a calibration curve.
(§2) For the other assays, we used the reagents of the VIDAS® testosterone kit (Cat. No 30418) and the assay protocol given in the instructions with the kit, with the following modifications: • Cones were sensitized with other anti-testosterone antibodies: 2 mouse monoclonal immunoglobulins G (IgG), the clones 19E10H6 and 15H9H10 (bioMerieux), which will be called Ab1 and Ab2 respectively, and 1 sheep monoclonal IgG, the clone testo3.6A3 (Bioventix), which will be called Ab3. As in the cone of the format of the reference assay, the anti-testosterone antibodies were captured by anti-species polyclonal antibodies adsorbed on the cone beforehand. It is a sheep anti-mouse IgG polyclonal antibody for Ab1 and Ab2, and a donkey anti-sheep IgG polyclonal antibody for Ab3. The anti-species antibodies are diluted to a concentration between 1 and 12 μg/ml in the sensitizing solution. After incubation for 6 h at +18/25° C., washing is carried out with saline solution. Then the solution of anti-testosterone antibodies containing a saturating agent of the protein or peptide type is added (concentration of the antibody: 0.01-0.2 μg/ml). Sensitization/passivation is continued at +18/25° C. overnight. Then the cones are emptied and dried. • The cones sensitized with the antibody Ab1 are tested with the VIDAS® conjugate, diluted to 1/2.5 for the tests with the monoclonal antibody. The cones sensitized with the antibodies Ab2 and Ab3 are tested with conjugate 1 of the invention prepared in example 9. This last-mentioned conjugate is used at a concentration of 3 ng/ml for the tests with the cones sensitized with the antibody Ab2 and 2.5 ng/ml for the cones sensitized with the antibody Ab3. • The conversion to dose is performed based on a standard 10-point range manufactured by supplementing woman's serum with testosterone in ethanolic solution. The nominal concentrations of each of the points are: 0.001 ng/ml-0.03 ng/ml-0.18 ng/ml-0.41 ng/ml-0.76 ng/ml-1.29 ng/ml-1.91 ng/ml-3.82 ng/ml-7.48 ng/ml-11.55 ng/ml. • The sample volume taken for each assay is 200 μl.
(§3) The standard range was measured with each assay format. Table 1 below summarizes the results obtained as RFV signal (relative fluorescence value) and B/B0% ratio, for the dilutions of the standard range. The ratio B/B0 is the signal obtained for the range point tested divided by the signal obtained for the range point 0.001 ng/ml of testosterone, multiplied by 100.
Secondly, to confirm that the format Ab2+Conjugate 1 of the invention is far more sensitive than the reference format REF, VIDAS® Testosterone kit, for which the measurement range recommended in the instructions extends from 0.1 to 13 ng/ml, these two formats were compared against serum samples obtained from the Etablissements Français du Sang (the French National Blood Service). These were 4 samples collected from women (codes with F), for whom the serum testosterone level is below 1 ng/ml, and 2 samples collected from men (codes with M). […]

[2] = test system: anti-testosterone antibody Ab3 (sheep monoclonal IgG, clone testo3.6A3); assay: VIDAS® competitive testosterone immunoassay, format Ab3 + Conjugate 1 of the invention; details: for B/B0% / Signal (RFV): conjugate 2.5 ng/ml
Experimental: as §1, §2, §3

[3] = test system: sheep anti-testosterone monoclonal antibody clone 3.6A3 (Ab3); assay: Microplate competitive testosterone immunoassay, Ab3 + Conjugate 2 of the invention, streptavidin-peroxidase/TMB; details: for B/B0% / OD450-OD630: conjugate 0.2 ng/well
Experimental: 100 μl/well of the mouse anti-goat Fe IgG monoclonal antibody (clone 9A4A5, bioMerieux) diluted to 10 μg/ml in PBS buffer 1× is distributed in a 96-well microplate (Nunc Maxisorp F96). The microplate is incubated overnight at room temperature in order to obtain adsorption of the antibody. The microplate is emptied, and then 300 μl/well of passivating buffer (buffer Tris 0.2 M pH 6.2) containing a saturating agent of the protein or peptide type, and the sheep anti-testosterone monoclonal antibody clone 3.6A3 (Ab3-bioVentix) diluted to 0.2 μg/ml are added. The microplate is incubated for 1 h at 37° C. Three washings are carried out with TBS (Tris buffered saline)-Tween®-20 0.05%. The range points used in example 10 are diluted to 1/2 in Tris buffer; 100 μl of these dilutions are distributed in the wells of the plate. After incubation for 1 h at 37° C., the wells are emptied and 0.2 ng/well of Conjugate 2 of the invention testosterone-3β-EMC-DAP-biotin in Tris buffer is added. The reaction with the conjugate is carried out for 15 minutes at 37° C., and is followed by 3 washings. 100 μl/well of streptavidin-peroxidase solution (Jackson Immunoresearch Cat. No. 016-30-084) diluted to 1/20 000 in TBS-Tween®-20 0.05%, BSA 2% is added and the microplate is incubated for 30 min at 37° C. After 3 washings, 100 μl/well of the 1-step Ultra TMB substrate (Thermo Scientific, Cat. No. 34028) is added and the microplate is incubated for 5 min at room temperature, away from the light. The reaction is then stopped by adding 100 μl of 2M sulfuric acid. The optical density (OD) at 450 nm and at 630 nm is measured in a microplate reader. For each well, the optical density at 630 nm is subtracted from the optical density at 450 nm.

[4] = testosterone 0.001 ng/ml range point
[5] = testosterone 0.03 ng/ml range point
[6] = testosterone 0.18 ng/ml range point
[7] = testosterone 0.41 ng/ml range point
[8] = testosterone 0.76 ng/ml range point
[9] = testosterone 1.29 ng/ml range point
[10] = testosterone 1.91 ng/ml range point
[11] = testosterone 3.82 ng/ml range point
[12] = testosterone 7.48 ng/ml range point
[13] = testosterone 11.55 ng/ml range point
[14] = testosterone 0.001 ng/ml range point (diluted to 1/2)
[15] = testosterone 0.03 ng/ml range point (diluted to 1/2)
[16] = testosterone 0.18 ng/ml range point (diluted to 1/2)
[17] = testosterone 0.41 ng/ml range point (diluted to 1/2)
[18] = testosterone 0.76 ng/ml range point (diluted to 1/2)
[19] = testosterone 1.29 ng/ml range point (diluted to 1/2)
[20] = testosterone 3.82 ng/ml range point (diluted to 1/2)
[21] = testosterone 11.55 ng/ml range point (diluted to 1/2)

17β-Hydroxy-3β-Carboxymethoxyandrost-4-ene/Alkaline Phosphatase [Conjugate 1 of the invention]
sensitivity of the assay format (comparison of formats) ([1]; FIG. 1): slightly more sensitive than the reference format | B/B0% [1, 4]: 100% | Signal (RFV) [1, 4]: 4077 RFV | B/B0% [1, 5]: 86% | Signal (RFV) [1, 5]: 3490 RFV | B/B0% [1, 6]: 72% | Signal (RFV) [1, 6]: 2935 RFV | B/B0% [1, 7]: 62% | Signal (RFV) [1, 7]: 2527 RFV | B/B0% [1, 8]: 55% | Signal (RFV) [1, 8]: 2238 RFV | B/B0% [1, 9]: 46% | Signal (RFV) [1, 9]: 1880 RFV | B/B0% [1, 10]: 42% | Signal (RFV) [1, 10]: 1729 RFV | B/B0% [1, 11]: 31% | Signal (RFV) [1, 11]: 1264 RFV | B/B0% [1, 12]: 22% | Signal (RFV) [1, 12]: 905 RFV | B/B0% [1, 13]: 16% | Signal (RFV) [1, 13]: 632 RFV | sensitivity of the assay format (comparison of formats) ([2]; FIG. 1): most sensitive | testosterone concentration giving a 50% decrease in the signal ([2]; from graph of FIG. 1): about 0.2 ng/ml | B/B0% [2, 4]: 100% | Signal (RFV) [2, 4]: 3209 RFV | B/B0% [2, 5]: 78% | Signal (RFV) [2, 5]: 2492 RFV | B/B0% [2, 6]: 53% | Signal (RFV) [2, 6]: 1700 RFV | B/B0% [2, 7]: 44% | Signal (RFV) [2, 7]: 1403 RFV | B/B0% [2, 8]: 40% | Signal (RFV) [2, 8]: 1286 RFV | B/B0% [2, 9]: 30% | Signal (RFV) [2, 9]: 960 RFV | B/B0% [2, 10]: 31% | Signal (RFV) [2, 10]: 990 RFV | B/B0% [2, 11]: 20% | Signal (RFV) [2, 11]: 644 RFV | B/B0% [2, 12]: 12% | Signal (RFV) [2, 12]: 380 RFV | B/B0% [2, 13]: 6% | Signal (RFV) [2, 13]: 205 RFV

CC12CC[C@H](OCC(=O)NCCCNC(=O)CCCCC3SCC4NC(=O)NC43)C=C1CCC1C2CCC2(C)C(O)CCC12 (stereo partly drawn) [Conjugate 2 of the invention, 17-β-Hydroxy-3-β-Carboxymethoxyandrost-4-ene/Biotin]
character of the testosterone assay range versus format Ab2+Conjugate 1 on VIDAS® ([3]; FIG. 2): comparable | sensitivity of the microplate assay (comparison) ([3]; FIG. 2): more sensitive than the VIDAS® assays using the VIDAS® Conjugate | B/B0% [3, 14]: 100% | OD450-OD630 [3, 14]: 2.52 | B/B0% [3, 15]: 83% | OD450-OD630 [3, 15]: 2.10 | B/B0% [3, 16]: 74% | OD450-OD630 [3, 16]: 1.88 | B/B0% [3, 17]: 64% | OD450-OD630 [3, 17]: 1.61 | B/B0% [3, 18]: 54% | OD450-OD630 [3, 18]: 1.36 | B/B0% [3, 19]: 40% | OD450-OD630 [3, 19]: 1.00 | B/B0% [3, 20]: 17% | OD450-OD630 [3, 20]: 0.42 | B/B0% [3, 21]: 7% | OD450-OD630 [3, 21]: 0.17

Reference: patent publication US9676811B2, “Testosterone derivatives with a carboxyalkyl substitution in position 3 and use thereof for the production of labelled steroids for determining the concentration of testosterone in a biological sample” (BIOMERIEUX, priority 2012, dated 2017)
